Values after ≈ are worked out from the molar mass of the structure shown.
Columns and labels:
Assay in all cases: ≥ marks a high value that may be exact or a test limit, other limits are often not marked, values filed in µg/mL are converted to µM
[1] = system: Staphylococcus aureus ATCC 29213
[2] = system: Bacillus subtilis ATCC 6633
[3] = system: Pseudomonas aeruginosa ATCC 27853
[4] = system: Escherichia coli SBS 363
[5] = system: Candida tropicalis IOC 4560
[6] = system: Serratia marcescens ATCC 4112
[7] = system: Enterobacter cloacae beta-12
[8] = system: Candida albicans MDM8
[9] = system: Bacillus megaterium ATCC 10778
[10] = system: Micrococcus luteus A270
[11] = system: Cryptococcus neoformans ATCC 208821
[12] = system: Staphylococcus aureus SH1000
[13] = system: Staphylococcus aureus ATCC 43300
[14] = system: Candida albicans ATCC 90028
[15] = system: Acinetobacter baumannii ATCC 19606
[16] = system: Escherichia coli ATCC 25922
[17] = system: Klebsiella pneumoniae ATCC 700603
[18] = system: Escherichia coli W3110
[19] = system: Klebsiella pneumoniae ATCC BAA-1705
[20] = system: Escherichia coli K-12
[21] = system: Pseudomonas aeruginosa PA330
[22] = system: Pseudomonas aeruginosa PAO1
[23] = system: Pseudomonas aeruginosa PA214
[24] = system: Candida albicans ATCC 36232
[25] = system: Micrococcus luteus ATCC 9341
[26] = system: Pseudomonas aeruginosa ATCC 9027
[27] = system: Staphylococcus aureus ATCC 6538
[28] = system: Proteus vulgaris ATCC 6380
[29] = system: Escherichia coli ATCC 2592
[30] = system: Staphylococcus aureus
[31] = system: Escherichia coli DH5alpha

An MIC [1] of 3.1 µM (≈ 4.71 µg/mL), an MIC [2] of 1.6 µM (≈ 2.43 µg/mL) and an MIC [3] of 12.5 µM (≈ 19 µg/mL) were found for `CC(C)C[C@H](NC(=O)[C@H](C)NC(=O)CNC(=O)[C@H](CC(C)C)NC(=O)[C@@H](N)Cc1ccccc1)C(=O)N[C@@H](Cc1c[nH]c2ccccc12)C(=O)N[C@@H](CC(N)=O)C(=O)N[C@H](C(=O)N[C@@H](C)C(=O)N[C@@H](CCCCN)C(=O)N[C@@H](CCCN=C(N)N)C(=O)N[C@H](C(=O)N[C@@H](Cc1ccccc1)C(N)=O)C(C)C)C(C)C` [FLGALWNVAKRVF] in this work. The MIC [4] was 1.6 µM (≈ 2.43 µg/mL), the MIC [5] was 1.6 µM (≈ 2.43 µg/mL) and the MIC [6] was 0.8 µM (≈ 1.22 µg/mL). For the same compound, the MIC [7] was 6.3 µM (≈ 9.58 µg/mL), the MIC [8] was 3.1 µM (≈ 4.71 µg/mL) and the MIC [9] was 0.8 µM (≈ 1.22 µg/mL). For the same compound, the MIC [10] was 1.6 µM (≈ 2.43 µg/mL).
An MIC [1] of 0.8 µM (≈ 1.19 µg/mL), an MIC [2] of 0.8 µM (≈ 1.19 µg/mL) and an MIC [3] of over 50 µM were found for `CC(C)C[C@H](NC(=O)[C@H](C)NC(=O)CNC(=O)[C@H](CC(C)C)NC(=O)[C@@H](N)Cc1ccccc1)C(=O)N[C@@H](Cc1c[nH]c2ccccc12)C(=O)N[C@@H](CC(N)=O)C(=O)N[C@H](C(=O)N[C@@H](CC(C)C)C(=O)N[C@@H](CCCCN)C(=O)N[C@@H](CO)C(=O)N[C@H](C(=O)N[C@@H](Cc1ccccc1)C(N)=O)C(C)C)C(C)C` [FLGALWNVLKSVF] in this work. It also gave an MIC [4] of 0.8 µM (≈ 1.19 µg/mL), an MIC [5] of 3.1 µM (≈ 4.63 µg/mL) and an MIC [6] of 0.4 µM (≈ 0.597 µg/mL). It also gave an MIC [7] of at least 50 µM, an MIC [8] of 3.1 µM (≈ 4.63 µg/mL) and an MIC [9] of 3.1 µM (≈ 4.63 µg/mL). For the same compound, the MIC [10] was 0.4 µM (≈ 0.597 µg/mL).
An MIC [11] of 20 µM (≈ 33.1 µg/mL), an MIC [12] of at least 33 µM and an MIC [3] of over 20 µM were found for `CC(C)C[C@H](NC(=O)CN)C(=O)N[C@@H](Cc1ccccc1)C(=O)N[C@@H](CCCCN)C(=O)N[C@@H](CC(C)C)C(=O)N[C@@H](CC(C)C)C(=O)N[C@@H](CCCCN)C(=O)N[C@@H](CCCCN)C(=O)N[C@@H](CC(C)C)C(=O)N[C@@H](CC(C)C)C(=O)N[C@@H](CCCCN)C(=O)N[C@@H](CC(C)C)C(=O)N[C@@H](CC(C)C)C(=O)N[C@@H](CCCCN)C(N)=O` [GLFKLLKKLLKLLK] in this work. For the same compound, the MIC [13] was over 20 µM, the MIC [14] was 20 µM (≈ 33.1 µg/mL) and the MIC [15] was over 20 µM. The MIC [16] was over 20 µM and the MIC [17] was over 20 µM.
An MIC [18] of 16 µM (≈ 34.2 µg/mL) and an MIC [19] of at least 128 µM were found for `CC[C@H](C)[C@H](N)C(=O)N[C@@H](CC(C)C)C(=O)N[C@@H](Cc1c[nH]c2ccccc12)C(=O)N[C@@H](C)C(=O)N[C@@H](CS)C(=O)N[C@@H](Cc1c[nH]c2ccccc12)C(=O)NCC(=O)N[C@@H](CC(C)C)C(=O)N[C@@H](CCCCN)C(=O)N[C@@H](CC(C)C)C(=O)N[C@@H](CC(C)C)C(=O)N[C@@H](CCCCN)C(=O)N[C@@H](Cc1ccc(O)cc1)C(=O)N[C@@H](CCCCN)C(=O)N[C@@H](CCCCN)C(=O)N[C@H](C(=O)N[C@@H](Cc1ccc(O)cc1)C(=O)O)[C@@H](C)CC` [ILWACWGLKLLKYKKIY] in this work.
An MIC [20] of 12.5 µM (≈ 22.9 µg/mL), an MIC [21] of at least 50 µM and an MIC [22] of 25 µM (≈ 45.9 µg/mL) were found for `C[C@H](NC(=O)[C@H](C)NC(=O)[C@H](CCCCN)NC(=O)[C@H](Cc1ccccc1)NC(=O)[C@H](C)NC(=O)[C@H](CCCCN)NC(=O)[C@H](C)NC(=O)[C@H](Cc1c[nH]c2ccccc12)NC(=O)[C@H](C)NC(=O)[C@H](CCCCN)NC(=O)[C@H](C)NC(=O)[C@H](Cc1ccccc1)NC(=O)[C@H](C)NC(=O)[C@H](CCCCN)NC(=O)[C@H](C)NC(=O)[C@H](CCCCN)NC(=O)[C@@H](N)CCCCN)C(N)=O` [KKAKAFAKAWAKAFKAA] in this work. It also gave an MIC [23] of at least 50 µM.
An MIC [20] of 3.1 µM (≈ 6.21 µg/mL), an MIC [21] of 6.3 µM (≈ 12.6 µg/mL) and an MIC [22] of 3.1 µM (≈ 6.21 µg/mL) were found for `CC(C)C[C@H](NC(=O)[C@H](C)NC(=O)[C@H](CCCCN)NC(=O)[C@H](Cc1ccccc1)NC(=O)[C@H](CC(C)C)NC(=O)[C@H](CCCCN)NC(=O)[C@H](C)NC(=O)[C@H](Cc1c[nH]c2ccccc12)NC(=O)[C@H](CC(C)C)NC(=O)[C@H](CCCCN)NC(=O)[C@H](CC(C)C)NC(=O)[C@H](Cc1ccccc1)NC(=O)[C@H](C)NC(=O)[C@H](C)NC(=O)[C@H](CCCCN)NC(=O)[C@H](CCCCN)NC(=O)[C@@H](N)CCCCN)C(N)=O` [KKKAAFLKLWAKLFKAL] in this work. For the same compound, the MIC [23] was 3.1 µM (≈ 6.21 µg/mL).
An MIC [24] of 2.41 µM (≈ 3.12 µg/mL), an MIC [25] of 2.41 µM (≈ 3.12 µg/mL) and an MIC [26] of 1.21 µM (≈ 1.56 µg/mL) were found for `CC(C)C[C@H](NC(=O)[C@H](CCCCN)NC(=O)[C@H](Cc1ccccc1)NC(=O)[C@H](CC(C)C)NC(=O)[C@H](CC(C)C)NC(=O)[C@H](CCCCN)NC(=O)[C@@H](N)CCCCN)C(=O)N[C@@H](CCCCN)C(=O)N[C@@H](Cc1ccccc1)C(=O)N[C@@H](CCCCN)C(N)=O` [KKLLFKLKFK] in this work. For the same compound, the MIC [27] was 9.67 µM (≈ 12.5 µg/mL), the MIC [28] was at least 77.4 µM and the MIC [29] was 2.41 µM (≈ 3.12 µg/mL). For the same compound, the MIC [30] was 38.7 µM (≈ 50 µg/mL).
An MIC [24] of 2.44 µM (≈ 3.12 µg/mL), an MIC [25] of 2.44 µM (≈ 3.12 µg/mL) and an MIC [26] of 1.22 µM (≈ 1.56 µg/mL) were found for `CC(C)C[C@H](NC(=O)[C@H](CCCCN)NC(=O)[C@H](Cc1ccccc1)NC(=O)[C@H](CC(C)C)NC(=O)[C@@H](NC(=O)[C@H](CCCCN)NC(=O)[C@@H](N)CCCCN)C(C)C)C(=O)N[C@@H](CCCCN)C(=O)N[C@@H](Cc1ccccc1)C(=O)N[C@@H](CCCCN)C(N)=O` [KKVLFKLKFK] in this work. For the same compound, the MIC [27] was 9.78 µM (≈ 12.5 µg/mL), the MIC [28] was at least 78.2 µM and the MIC [29] was 2.44 µM (≈ 3.12 µg/mL). For the same compound, the MIC [30] was 19.6 µM (≈ 25 µg/mL).
An MIC [12] of at least 50 µM and an MIC [31] of at least 50 µM were found for `CC[C@H](C)[C@H](NC(=O)[C@H](C)NC(=O)[C@H](CCCCN)NC(=O)[C@@H](NC(=O)[C@H](CC(C)C)NC(=O)[C@H](CCCCN)NC(=O)[C@H](CCCCN)NC(=O)[C@@H](NC(=O)CNC(=O)[C@H](C)NC(=O)[C@H](Cc1ccccc1)NC(=O)[C@H](Cc1ccc(O)cc1)NC(=O)[C@@H]1CCCN1C(=O)[C@H](CC(=O)O)NC(=O)[C@@H](N)Cc1c[nH]c2ccccc12)C(C)C)[C@@H](C)O)C(=O)N[C@@H](CC(C)C)C(=O)N[C@@H](C)C(=O)N[C@H](C(=O)N[C@@H](CCCN=C(N)N)C(=O)N[C@@H](C)C(N)=O)C(C)C` [WDPYFAGVKKLTKAILAVRA] in this work.
An MIC [18] of 1 µM (≈ 2.28 µg/mL) and an MIC [19] of 2 µM (≈ 4.56 µg/mL) were found for `CC[C@H](C)[C@H](NC(=O)[C@H](CCCCN)NC(=O)[C@H](CCCCN)NC(=O)[C@H](Cc1ccc(O)cc1)NC(=O)[C@H](CCCCN)NC(=O)[C@H](CC(C)C)NC(=O)[C@H](CC(C)C)NC(=O)[C@H](CCCCN)NC(=O)[C@H](CC(C)C)NC(=O)CNC(=O)[C@H](Cc1c[nH]c2ccccc12)NC(=O)[C@H](CCCCN)NC(=O)[C@H](C)NC(=O)[C@H](Cc1c[nH]c2ccccc12)NC(=O)[C@H](CCCN=C(N)N)NC(=O)[C@@H](N)Cc1c[nH]c2ccccc12)C(=O)N[C@@H](Cc1ccc(O)cc1)C(=O)O` [WRWAKWGLKLLKYKKIY] in this work.

Reference: DBAASP
